Key:
[1] = In vitro intrinsic clearance in microsomes, dog; type: in vitro ADME; conditions: Assay 3, dog female microsomes, 0.5 uM compound, 0.5 mg/mL protein, 37° C.; for microsomal CLint at 0.5 uM: pH 7.4
Description: (§1) Determination of In vitro Intrinsic Clearance in Microsomes
(§2) NADP regeneration buffer for use in incubations was prepared fresh on the assay day. It contained 7.8 mg glucose-6-phosphate (mono-sodium salt), 1.7 mg NADP and 6 Units glucose-6-phosphate dehydrogenase per 1 mL of 2% sodium bicarbonate. Microsomes (human, female; cynomolgus monkey, female; dog, female; rat, female) were prepared in pH7.4 phosphate buffer and contained 0.625 mg protein/mL. Unless stated, all subsequent steps were performed by a Tecan Genesis 150/8 RSP. A 1.25 mM stock solution of the compounds was prepared in Acetonitrile/water (1:1). 25 ul of the 1.25 mM stock solution was added to 600 ul of Acetonitrile/water (1:1) to give a 50 uM solution. For each species, the 50 uM solutions (10 uL) were added to microsomes (790 uL) in a microplate (Porvair, 96 deepwell, square). 400 uL of the microsomal solution containing the compound was transferred to a microplate (Porvair, 96 deepwell, round) and was pre-warmed at 37° C. for five minutes prior to initiation of incubations. All incubations were initiated by addition of 100 uL of
(§3) NADP regeneration system to the pre-warmed microsomes. The mixtures were incubated at 37° C. in a Techne heating block. Following 0, 3, 6, 12 and 30 minutes incubation, 20 uL aliquots were taken and added to 100 uL of acetonitrile containing internal standard.
(§4) For determination of the rate of metabolism, incubations were performed at a compound concentration of 0.5 uM and a protein concentration of 0.5 mg/mL. The concentration of solvent in the incubation was 0.5%.
(§5) Test compound concentrations were determined by LC/MS/MS; results were reported as analyte:internal standard peak area ratios.
(§6) The rate of disappearance was calculated by fitting a single exponential decay to the concentration-time curve using Excel and intrinsic clearance was calculated using the following formula: […]

[2] = In vitro intrinsic clearance in microsomes, human; type: in vitro ADME; conditions: Assay 3, human female microsomes, 0.5 uM compound, 0.5 mg/mL protein, 37° C.; for microsomal CLint at 0.5 uM: pH 7.4
Description: as §1, §2, §3, §4, §5, §6

[3] = target: T1, human recombinant oxytocin receptors (Homo sapiens, UniProt P30559); assay: Oxytocin binding assay ([3H]-oxytocin, CHO cell membranes); conditions: Assay 2, Ki from IC50 by Cheng and Prusoff
T1 construct: expressed in transfected cells; host or cells: membranes of CHO cells
T1 sequence (P30559 1-389): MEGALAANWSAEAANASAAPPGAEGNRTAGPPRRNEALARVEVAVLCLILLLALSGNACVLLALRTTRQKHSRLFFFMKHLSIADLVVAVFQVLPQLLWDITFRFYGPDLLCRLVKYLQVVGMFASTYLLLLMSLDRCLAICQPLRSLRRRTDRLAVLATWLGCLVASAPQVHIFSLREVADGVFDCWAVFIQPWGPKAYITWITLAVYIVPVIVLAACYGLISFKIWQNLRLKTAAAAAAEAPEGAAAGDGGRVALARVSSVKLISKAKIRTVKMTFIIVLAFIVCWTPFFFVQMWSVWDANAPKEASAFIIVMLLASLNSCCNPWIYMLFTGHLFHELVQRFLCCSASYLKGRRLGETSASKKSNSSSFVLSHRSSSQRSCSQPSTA
Description: Membranes were prepared from CHO cells expressing human recombinant oxytocin receptors. The membrane preparation was frozen in aliquots at −70° C. until used.
Membranes (˜50 ug) were incubated in 200 ul of assay buffer (50 mM Tris, 10 mM MgCl2, and 0.1% bovine serum albumin, pH 7.5) containing ˜2.4 nM of [3H]-oxytocin in the absence (total binding) or presence (non-specific binding) of 1 uM unlabeled oxytocin and increasing concentrations of the compounds in Examples 1 to 6 or comparator compounds. Incubations were performed at room temperature for 60 minutes. The reactions were stopped with 3 ml of ice cold buffer and filtered through Whatman GF/C filter paper presoaked in 0.3% polyethylenimine. The filters were washed 4 times with 3 ml buffer using a Brandel cell harvester. The filters were counted in 3 ml Ready Safe scintillation fluid (Beckman).
Specific binding represented approximately 90% of total binding.
IC50 values were determined from competition binding experiments using non-linear regression analysis (GraphPad) and converted to Ki using the method of Cheng and Prusoff, 1974. Data are reported as mean values.

[4] = In vitro intrinsic clearance in microsomes, rat; type: in vitro ADME; conditions: Assay 3, rat female microsomes, 0.5 uM compound, 0.5 mg/mL protein, 37° C.; for microsomal CLint at 0.5 uM: pH 7.4
Description: as §1, §2, §3, §4, §5, §6

[5] = target: T2, recombinant human Oxytocin-1 (hOT) receptor (Homo sapiens, UniProt P30559); assay: Antagonist affinity at human Oxytocin-1 receptors using FLIPR ([Ca2+]i); type: cell-based; conditions: Assay 1, CHO-hOT cells, oxytocin at EC80, read-out: fpKi
T2 construct: expressed in transfected cells
T2 sequence (P30559 1-389): T1 sequence (P30559 1-389)
Description: Determination of Antagonist Affinity at Human Oxytocin-1 Receptors using FLIPR
Adherent Chinese Hamster Ovary (CHO) cells, stably expressing the recombinant human Oxytocin-1 (hOT) receptor, were maintained in culture in DMEM:F12 medium (Sigma, cat no D6421), supplemented with 10% heat inactivated foetal calf serum
(Gibco/Invitrogen, cat. no. 01000-147), 2 mM L-glutamine (Gibco/Invitrogen, cat. no. 25030-024) and 0.2 mg/ml G418 (Gibco/Invitrogen, cat no. 10131-027). Cells were grown as monolayers under 95%:5% air:CO2 at 37° C. and passaged every 3-4 days using TrypLE™ Express (Gibco/Invitrogen, cat no. 12604-013).
Measurement of [Ca^2+]i using the FLIPR™
CHO-hOT cells were seeded into black walled clear-base 384-well plates (Nunc) at a density of 10,000 cells per well in culture medium as described above and maintained overnight (95%:5% air:CO2 at 37° C.). […] Cells were then incubated for an additional 30 min at 37° C. with either buffer alone or buffer containing OT antagonist, before being placed into a FLIPR™ (Molecular Devices, UK) to monitor cell fluorescence (λex=488 nm, λEM=540 nm) before and after the addition of a submaximal concentration of oxytocin (EC80).
Functional responses using FLIPR were analysed using Activity Base Version 5.0.10.

[6] = In vitro intrinsic clearance in microsomes, cynomolgus monkey; type: in vitro ADME; conditions: Assay 3, cynomolgus monkey female microsomes, 0.5 uM compound, 0.5 mg/mL protein, 37° C.; for microsomal CLint at 0.5 uM: pH 7.4
Description: as §1, §2, §3, §4, §5, §6

SMILES | microsomal CLint at 0.5 uM [1] [mL/min/g] | microsomal CLint at 0.5 uM [2] [mL/min/g] | Ki [3] [nM] | microsomal CLint at 0.5 uM [4] [mL/min/g] | Ki [5] [nM] | microsomal CLint at 0.5 uM [6] [mL/min/g] | Microsomal Cl, Human [2] | Microsomal Cl, Cynomolgus monkey [6] | Microsomal Cl, Dog [1] | Microsomal Cl, Rat [4]
Cc1ccc([C@H](C(=O)N(C)C)N2C(=O)[C@@H](C3Cc4ccccc4C3)NC(=O)[C@H]2CC(C)C)cn1 [Comparator X, (2R)-2-[(3R,6R)-3-(2,3-dihydro-1H-inden-2-yl)-6-isobutyl-2,5-dioxopiperazin-1-yl]-N,N-dimethyl-2-(6-methylpyridin-3-yl)ethanamide, reference compound] | 1 to 8 | 9 to 15 | 0.0316 to 1.58 | 1 to 8 | 0.631 to 7.94 | – | – | – | – | –
CC[C@H](C)[C@@H]1C(=O)N[C@H](C2Cc3ccccc3C2)C(=O)N1[C@@H](C(=O)NC)c1ccc(C)nc1C [Example 1, (2R)-2-{(3R,6R)-3-(2,3-Dihydro-1H-inden-2-yl)-6-[(1S)-1-methylpropyl]-2,5-dioxo-1-piperazinyl}-2-(2,6-dimethyl-3-pyridinyl)-N-methylethanamide] | 1 to 8 | 1 to 8 | – | 1 to 8 | – | 1 to 8 | – | – | – | –
CC[C@H](C)[C@@H]1C(=O)N[C@H](C2Cc3ccccc3C2)C(=O)N1[C@@H](C(=O)N(C)C)c1ccc(C)nc1C [Example 2, (2R)-2-{(3R,6R)-3-(2,3-Dihydro-1H-inden-2-yl)-6-[(1S)-1-methylpropyl]-2,5-dioxo-1-piperazinyl}-2-(2,6-dimethyl-3-pyridinyl)-N,N-dimethylethanamide] | 1 to 8 | – | – | 1 to 8 | – | – | +, + | ++, +++ | – | –
CC[C@H](C)[C@@H]1C(=O)N[C@H](C2Cc3ccccc3C2)C(=O)N1[C@@H](C(=O)N1CCOCC1)c1ccc(C)nc1C [Example 3, (3R,6R)-3-(2,3-dihydro-1H-inden-2-yl)-1-[(1R)-1-(2,6-dimethyl-3-pyridinyl)-2-(4-morpholinyl)-2-oxoethyl]-6-[(1S)-1-methylpropyl]-2,5-piperazinedione] | 1 to 8 | 1 to 8 | – | 1 to 8 | – | 1 to 8 | – | – | – | –
CC[C@H](C)[C@@H]1C(=O)N[C@H](C2Cc3ccccc3C2)C(=O)N1[C@@H](C(=O)N(C)C)c1cnc(C)cc1C [Example 4, (2R)-2-{(3R,6R)-3-(2,3-Dihydro-1H-inden-2-yl)-6-[(1S)-1-methylpropyl]-2,5-dioxo-1-piperazinyl}-2-(4,6-dimethyl-3-pyridinyl)-N,N-dimethylethanamide] | – | – | – | – | – | – | ++, + | +++++, +++++ | +, + | +, +
CC[C@H](C)[C@@H]1C(=O)N[C@H](C2Cc3ccccc3C2)C(=O)N1[C@@H](C(=O)NC)c1cnc(C)cc1C [Example 5, (2R)-2-{(3R,6R)-3-(2,3-Dihydro-1H-inden-2-yl)-6-[(1S)-1-methylpropyl]-2,5-dioxo-1-piperazinyl}-2-(4,6-dimethyl-3-pyridinyl)-N-methylethanamide] | 1 to 8 | 1 to 8 | – | 1 to 8 | – | 16 to 20 | – | – | – | –
CC[C@H](C)[C@@H]1C(=O)N[C@H](C2Cc3ccccc3C2)C(=O)N1[C@@H](C(=O)N1CCOCC1)c1cnc(C)cc1C [Example 6, (3R,6R)-3-(2,3-dihydro-1H-inden-2-yl)-1-[(1R)-1-(4,6-dimethyl-3-pyridinyl)-2-(4-morpholinyl)-2-oxoethyl]-6-[(1S)-1-methylpropyl]-2,5-piperazinedione] | 1 to 8 | 1 to 8 | – | 1 to 8 | – | 16 to 20 | – | – | – | –
